In article PMC12567141, “Design, Synthesis and Biological Evaluation of Pyrazolopyrimidine Derivatives as Aryl Hydrocarbon Receptor Antagonists for Colorectal Cancer Immunotherapy” (Pharmaceutics, 2025):

Experiments:
[1] = test system: MC38 tumor; test: In vivo therapy, MC38 syngeneic model; design: species or system mice
Experimental: (§1) In vivo experiments were conducted using 6-week-old male immunocompetent BALB/c and C57BL/6 with 18–20 g body weight (Orient Bio Inc., Seungnam, Republic of Korea). All animal experimental procedures were maintained and used in accordance with the Guidelines for the Care and Use of Laboratory Animals of the Institute of Laboratory Animal Center, Daegu-Gyeongbuk Medical Innovation Foundation (K-MEDI hub). The animal studies were conducted after approval by the institutional reviewer board on the Ethics of Animal Experiments of the Daegu-Gyeongbuk Medical Innovation Foundation (approval number: KMEDI-24041103-01).
Study 1: Antitumor activity of 7k alone in mice with either CT26 syngeneic model or MC38 syngeneic model. Mice were subcutaneously challenged with 5 × 10^5 either MC38 or CT26 cells. […]
The 7k was dissolved in solution including 5% DMSO, 55% DW, and 40% PEG. Tumor size was measured with a caliper at the indicated time points, and tumor volume (mm^3) was calculated using the following formula, tumor volume (mm^3) = d2 × D/2, where d and D are the shortest and longest diameters in mm, respectively.

[2] = test system: normal cells (CHO, L929, CCD-18Co); test: Cell viability assay (CCK-8), normal cells; format: cell-based; settings: 24 h, 7k: CHO, SR-1: CCD-18Co
Experimental: Chinese hamster ovary CHO cells, mouse fibroblast L929 cells, normal colon CCD18-Co cells, monkey kidney fibroblast COS-7 cells, colorectal cancer cells including HCT-116, RKO, SW480, SW620, CT26, and MC38 cells were purchased from ATCC (American Type Culture Collection). CHO, L929, Cos-7, and all cancer cells were maintained in RPMI 1640 or DMEM supplemented with 10% FBS (Gibco FBS; Thermo Fisher Scientific, Hanover Park, IL, USA) and 1% streptomycin/penicillin. CCD18-Co cells were cultured in high-glucose Dulbecco modified Eagle medium containing 10% FBS and 1% streptomycin/penicillin. All cells were grown in 5% CO2 at 37 °C. Mycoplasma testing was regularly performed every month using the BioMycoX Mycoplasma PCR Detection Kit (CellSafe, Yongin, Republic of Korea).
Cell viability was analyzed using a Cell Counting Kit-8 (Dojindo molecular technologies, Rockville, MD, USA). Cells were seeded in 96-well plates and treated with different concentrations of 7k. At the indicated time points, CCK-8 (10 μL/well) reagents were added to the cells, followed by further incubation at 37 °C for 90 min. The absorbance at 450 nm was measured using a plate reader (BioTek instruments, Winooski, VT, USA).

[3] = Pharmacokinetic study in mouse; format: in vivo, ICR mice; settings: male, ICR, plasma
Experimental: To estimate the pharmacokinetic parameters in animals, the drug was administered via intravenous (I.V., 5 mg/kg) and oral (P.O., 10 mg/kg) routes in seven-week-old male ICR mice (Orient Bio Inc., Seongnam, Korea). Blood samples were collected at 0.083 (for I.V.), 0.5, 1, 2, 4, 8, and 24 h after drug administrations and then immediately centrifuged at 10,000× g for 3 min. The plasma concentrations of the drug were determined via LC-MS/MS. The plasma concentration–time profiles and pharmacokinetic parameters were estimated using the non-compartmental method with the nonlinear least squares regression program WinNonlin 5.3 (Pharsight, Mountain View, CA, USA).

[4] = test system: MC38 and CT26 cells; test: Cell-cycle analysis by flow cytometry; format: cell-based; settings: 24 h treatment
Experimental: Washed and fixed cells were stained in the dark with 0.5 mL propidium iodide/RNase staining buffer for 15 min at room temperature. DNA content, cell-cycle profiles, and forward scatter were analyzed using a Becton Dickinson LSRFortessa^TM (BD Diagnostics, San Jose, CA, USA) with emission detection at 488 nm (excitation) and 575 nm (peak emission). Data were analyzed using FlowJo (BD biosciences, San Jose, CA. USA).

[5] = Body weight during in vivo therapy; settings: 7k-treated tumor-bearing mice during in vivo therapy
Experimental: as §1
Study 1: Antitumor activity of 7k alone in mice with either CT26 syngeneic model or MC38 syngeneic model. Mice were subcutaneously challenged with 5 × 10^5 either MC38 or CT26 cells. When tumor formation was detected via inspection and palpation, 7k treatment was initiated once a day for 14 days by oral gavage.
Study 2: Antitumor activity of combination with anti-PD1 and 7k in CT26 tumor bearing mice. Mice were subcutaneously challenged with 5 × 10^5 CT26 cells. Tumor bearing mice were divided into four groups as following; Group 1: vehicle, Group 2: 10 mg/kg anti-PD1, Group 3: 10 mg/kg 7k, and Group 4: 10 mg/kg anti-PD1 + 10 mg/kg 7k. 7k was administered by oral gavage once daily. […]

With `CC(C)n1cc2nc(-c3cc(F)cc(F)c3)nc(NCCc3c[nH]c4ccccc34)c2n1` [Compound 7k, N-(2-(1H-indol-3-yl)ethyl)-5-(3,5-difluorophenyl)-2-isopropyl-2H-pyrazolo [4,3-d]pyrimidin-7-amine] the “tumor growth inhibition (TGI)” value ([1]; MC38 model, combination study, 7k oral daily 20 days, anti-PD1 i.p. every three days four times) was 45%, the “tumor growth inhibition (TGI)” value ([1]; MC38 model, comparison of 7k and 3′,4′-dimethoxyflavone, 10 mg/kg oral once a day, 18 days) was 51% and the tumor weight ([1]; MC38 tumor bearing mice, vs vehicle-treated mice (Figure S5)) was “significantly lower”. The “tumor growth inhibition (TGI)” value ([1]; MC38 tumor-bearing mice, single agent, 10 mg/kg oral once a day for 14 days) was 49%, the “cell viability of normal cells” value [2] was “few antiproliferative effects” and the AUC(0-inf) ([3]; IV, 5 mg/kg) was 5860 ng·h/mL. It also gave an AUC(0-t) ([3]; IV, 5 mg/kg) of 5750 ± 740 ng·h/mL, a clearance ([3]; IV, 5 mg/kg) of 14.3 mL/min/kg and a half-life ([3]; IV, 5 mg/kg) of 4.54 h. It also gave a Vd ([3]; IV, 5 mg/kg, read-out: Vss (converted)) of 3.91 L/kg, an AUC(0-inf) ([3]; PO, 10 mg/kg) of 8230 ng·h/mL and an AUC(0-t) ([3]; PO, 10 mg/kg) of 8160 ± 3670 ng·h/mL. It also gave a Cmax ([3]; PO, 10 mg/kg) of 2380 ng/mL, a Tmax ([3]; PO, 10 mg/kg) of 0.67 ± 0.29 h and a half-life ([3]; PO, 10 mg/kg) of 3.77 h. The bioavailability ([3]; PO, 10 mg/kg, read-out: Ft (%) bioavailability (converted)) was 71%, the sub-G1 fraction [4] was “dose-dependent increase in the sub-G1 fraction” and the body weight [5] was “No abnormal reduction in body weight”.
